In publication PMC10684410 (Clinical Pharmacokinetics, 2023):

Experiments:
[1] = Plasma paroxetine concentrations in the DDI study; type: in vivo, human (healthy subjects)
TAAR1 = details: in vitro receptor binding studies; result in words; cited from earlier work
[2] = cited from earlier work
[3] = 25 mg ulotaront + 20 mg QD paroxetine vs ulotaront alone, result in words

AUC ([1]; human, plasma, oral, 20 mg) [ng·h/mL] | Cmax ([1]; human, plasma, oral, 20 mg) [ng/mL] | mean plasma trough concentration at steady-state ([1]; paroxetine 20 mg once daily from Day 5, Day 11) [ng/mL] | increase of SEP-363854 AUC∞ by coadministration of paroxetine (25 mg ulotaront + 20 mg QD paroxetine vs ulotaront alone) [%] | effect of paroxetine on SEP-363854 Cmax [3] | effect of paroxetine on SEP-363854 tmax [3] | effect of paroxetine on SEP-363854 to ulotaront AUClast ratio [3] | mean SEP-363854 to ulotaront AUClast ratio (with or without paroxetine coadministration) | SMILES | binding to TAAR1 (TAAR1) | metabolite abundance in humans ([2]; minor metabolite in humans) | effective half-life for the metabolite ([2]; ref unpublished data)
647 | 37.3 | 19.3 | – | – | – | – | – | Fc1ccc([C@@H]2CCNC[C@H]2COc2ccc3c(c2)OCO3)cc1 [Paroxetine] | – | – | –
– | – | – | 32 | no effect | no effect | no effect | about 0.02 | NCC1OCCc2ccsc21 (centres unmarked) [SEP-363854] | does bind to TAAR1 | < 2 % of total | approximately 6 h
